Data reported in paper PMC8151276, “An Integrated Approach toward NanoBRET Tracers for Analysis of GPCR Ligand Engagement” (Molecules, 2021).

Biological target: T1, ADCYAP1R1 (Homo sapiens, UniProt P41586)
T1 construct: purchased Promega (in-house HiBiT-GPCR construct library, NanoBRET)
T1 sequence (P41586 21-468): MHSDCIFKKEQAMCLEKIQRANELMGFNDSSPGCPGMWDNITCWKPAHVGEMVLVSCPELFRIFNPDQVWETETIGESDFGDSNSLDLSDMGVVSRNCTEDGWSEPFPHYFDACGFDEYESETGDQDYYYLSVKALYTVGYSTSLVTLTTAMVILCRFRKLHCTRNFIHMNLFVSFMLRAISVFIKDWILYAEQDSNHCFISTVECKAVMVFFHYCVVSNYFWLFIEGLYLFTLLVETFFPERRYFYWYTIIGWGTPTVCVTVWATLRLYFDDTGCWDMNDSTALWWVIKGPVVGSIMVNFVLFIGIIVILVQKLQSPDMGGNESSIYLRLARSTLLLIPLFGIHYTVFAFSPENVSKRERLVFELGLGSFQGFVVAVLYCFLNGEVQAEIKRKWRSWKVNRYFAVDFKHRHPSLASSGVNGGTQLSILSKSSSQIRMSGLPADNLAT
Experiment: NanoBRET screen HiBiT-ADCYAP1R1 in HEK293
Format: binding
Description: Each tracer candidate was screened across the entire library of HiBiT-GPCR constructs using NanoBRET as the detection modality. As depicted in Figure 4A, the specificity of interactions was evaluated through decrease in BRET due to competitive displacement of a bound tracer by excess parental compound. Each tracer was analyzed for binding to each HiBiT-GPCR fusion in the absence and in the presence of competing parental compound. Briefly, HEK293 cells were transfected with HiBiT-GPCR constructs diluted into promoterless DNA to reduce expression and maximize translocation to the cell surface. Each tracer candidate was then screened at concentrations of 1 μM and 0.1 μM across cells expressing these fusions. Cells were treated for 1.5 h with tracer either alone or in the presence of 20 μM competing parental compound (i.e., control). BRET was measured upon addition of purified LgBiT and subsequent complementation with HiBiT genetically fused to a GPCR. The specificity of interactions was assessed through a decrease in BRET signal due to competitive displacement of the bound tracer. To further gauge the robustness of these interactions, the fold response over the control (i.e., BRETtracer/BRETcontrol) was calculated. We chose a 1.5-fold response, which translates to ≥7-fold signal over noise as the minimal threshold required to score an interaction as positive.
HiBiT-GPCR DNA constructs were diluted in 10 mM Tris pH 8 to a final concentration of 0.01 μg/μL, arrayed in 96-well plates and stored at −20 °C. For transfection, HEK293 cells were suspended in Opti-MEM (without phenol red) supplemented with 2% fetal bovine serum (Seradigm) and 100 units/mL penicillin–streptomycin (Gibco) at a final concentration of 220,000 cells/mL and dispensed into white 96-well plates at 90 μL/well. Subsequent transfections and screens were carried using an Agilent Bravo Automated Liquid Handling Platform. First, the 96-well HiBiT DNA arrays were diluted 25-fold in Opti-MEM (without serum or phenol red) to a final concentration of 0.0004 μg/μL and 20 μL of the diluted DNAs were transferred into new 96-well plates. Next, promoterless carrier DNA (1 μg/μL) was diluted 25-fold (0.04 μg/μL) and then dispensed into the diluted arrays at 20 μL/well. Following brief mixing, Viafect transfection reagent (Promega) diluted 16-fold into Opti-MEM was dispensed into the plates at 40 μL/well. After mixing by pipetting, plates were incubated for 10 min on the pipetting station deck. The DNA-transfection reagent complexes were then added to plates containing cells. To facilitate the screen, 10 μL of DNA-transfection reagent complexes were added in duplicates to the top 4 and bottom 4 rows, resulting in two identical 48-well arrays per plate. Plates with transfected cells were incubated for 18–20 h at 37 °C/5% CO2. A screen of each tracer across the entire library using two different concentrations requires duplicate plates of transfected cells. Depending on the number of tracers being screened, transfections can be scaled up using the same ratios. The next day, for each tracer, four 20× screening solutions in tracer dilution buffer (Promega) were prepared: two duplicates at final concentration of 20 μM and two duplicates at a final concentration of 2 μM. […] The four resulting solutions were diluted 4-fold in Opti-MEM without serum or phenol red to generate 5× solutions (5 µM and 0.5 µM tracer +/− 100 μM competing compound). To screen the library, a BioTek MultiFlo FX liquid dispenser was used to dispense 22.5 µL of tracer solution to the top 4 rows and 22.5 µL tracer + competing compound solution to the 4 bottom rows. Plates were briefly mixed on an orbital shaker and incubated for 1.5 h at room temperature. […] Plates were briefly mixed on an orbital shaker and incubated for 15 min to allow complementation.

Structure (SMILES) | NanoBRET Fold Response (ADCYAP1R1, tracer 0.1μM) | NanoBRET Fold Response (ADCYAP1R1, tracer 1μM) | also measured
CN1CCN(C2=Nc3cc(Cl)ccc3Nc3ccc(CNC(=O)CCOCCOCCOCCOCCNC(=O)CCc4ccc5n4[B-](F)(F)[N+]4=C(c6ccc[nH]6)C=CC4=C5)cc32)CC1 [Clozapine-b-2-NB590] |  |  | NanoBRET Fold Response (ADCYAP1R1, 0.1μM tracer): 1.04; NanoBRET Fold Response (ADCYAP1R1, 1μM tracer): 1.09
CN(C)CCC=C1c2ccccc2CCc2ccc(C(=O)NCCNC(=O)CCOCCOCCOCCOCCNC(=O)CCc3ccc4n3[B-](F)(F)[N+]3=C(c5ccc[nH]5)C=CC3=C4)cc21 [Amitriptyline-b-2-NB590] | 0.99 | 0.99 | 
CCOC(=O)c1cc(C#N)c(N2CCC(C(=O)NS(=O)(=O)Cc3ccccc3/C=C/C(=O)NCCNC(=O)CCc3ccc4n3[B-](F)(F)[N+]3=C(c5ccc[nH]5)C=CC3=C4)CC2)nc1C [AZD1283-1-NB590] |  |  | NanoBRET Fold Response (ADCYAP1R1, 0.1μM): 0.93; NanoBRET Fold Response (ADCYAP1R1, 1μM): 0.96
CC(C)N(CC[C@H](c1ccccc1)c1cc(CCNC(=O)CCOCCOCCOCCOCCNC(=O)CCc2ccc3n2[B-](F)(F)[N+]2=C(c4ccc[nH]4)C=CC2=C3)ccc1O)C(C)C [Tolterodine-2-NB590] | 0.68 | 0.93 | 
CC(C)N(CC[C@H](c1ccccc1)c1cc(CCNC(=O)c2ccc(CNC(=O)CCc3ccc4n3[B-](F)(F)[N+]3=C(c5ccc[nH]5)C=CC3=C4)cc2)ccc1O)C(C)C [Tolterodine-BZ-NB590] | 1.04 | 1.00 | 
O=C(CCOCCOCCOCCOCCNC(=O)CCc1ccc2n1[B-](F)(F)[N+]1=C(c3ccc[nH]3)C=CC1=C2)NCCCN1CCN(C2=Nc3ccccc3Oc3ccc(Cl)cc32)CC1 [Loxapine-a-2-NB590] | 1.03 | 1.20 | 
CN1CCN(C2=Nc3cc(Cl)ccc3N(CC(=O)NCCOCCOCCOCCOCCNC(=O)CCc3ccc4n3[B-](F)(F)[N+]3=C(c5ccc[nH]5)C=CC3=C4)c3ccccc32)CC1 [Clozapine-c-2-NB590] |  |  | NanoBRET Fold Response (ADCYAP1R1, 0.1μM tracer): 0.97; NanoBRET Fold Response (ADCYAP1R1, 1μM tracer): 1.07
Cc1nc2n(c(=O)c1CCN1CCC(c3noc4cc(F)ccc34)CC1)CCCC2OC(=O)NCCOCCOCCOCCOCCNC(=O)CCc1ccc2n1[B-](F)(F)[N+]1=C(c3ccc[nH]3)C=CC1=C2 (centres unmarked) [Risperidone-2-NB590] | 0.99 | 1.02 | 
COc1ccc2[nH]c(-c3ccc(CNC(=O)CCOCCOCCOCCOCCNC(=O)CCc4ccc5n4[B-](F)(F)[N+]4=C(c6ccc[nH]6)C=CC4=C5)cc3)c(CCNC(C)=O)c2n1 [AzomelatoninICO9-2-NB590] |  |  | NanoBRET Fold Response (0.1μM tracer): 1.08; NanoBRET Fold Response (1μM tracer): 0.91
COc1ccccc1N1CCN(CCCCN2C(=O)c3ccc(CNC(=O)CCOCCOCCOCCOCCNC(=O)CCc4ccc5n4[B-](F)(F)[N+]4=C(c6ccc[nH]6)C=CC4=C5)cc3C2=O)CC1 [NAN-190-2-NB590] | 1.08 | 1.04 | 
O=C(CCc1ccc2n1[B-](F)(F)[N+]1=C(c3ccc[nH]3)C=CC1=C2)NCCOCCOCCNC(=O)OCCOCCN1CCN(C2=Nc3ccccc3Sc3ccccc32)CC1 [Quetiapine-a-2-NB590] | 1.03 | 1.11 | 
O=C(CCOCCOCCOCCOCCNC(=O)CCc1ccc2n1[B-](F)(F)[N+]1=C(c3ccc[nH]3)C=CC1=C2)NCCCN1CCN(C2=Nc3cc(Cl)ccc3Nc3ccccc32)CC1 [Clozapine-a-2-NB590] |  |  | NanoBRET Fold Response (ADCYAP1R1, 0.1μM tracer): 1.00; NanoBRET Fold Response (ADCYAP1R1, 1μM tracer): 1.06
N#CN=C(NCCCOc1cccc(CN2CCCCC2)c1)NCCNC(=O)CCOCCOCCOCCOCCNC(=O)CCc1ccc2n1[B-](F)(F)[N+]1=C(c3ccc[nH]3)C=CC1=C2 [Aminopotentidine-2-NB590] | 1.00 | 1.01 | 
O=C(CCc1ccc2n1[B-](F)(F)[N+]1=C(c3ccc[nH]3)C=CC1=C2)NCc1ccc(C(=O)NCCOCCOCCNCC(O)COc2cccc3ccccc23)cc1 (centres unmarked) [Propranolol-3-NB590] |  |  | NanoBRET Fold Response (ADCYAP1R1, 0.1μM): 1.00; NanoBRET Fold Response (ADCYAP1R1, 1μM): 0.97
O=C(CCc1ccc2n1[B-](F)(F)[N+]1=C(c3ccc[nH]3)C=CC1=C2)NCc1ccc(C(=O)NCCOCCC(=O)N[C@@H]2CC[C@@]3(O)[C@H]4Cc5ccc(O)c6c5[C@@]3(CCN4CC3CC3)[C@H]2O6)cc1 [Naltrexone-3-NB590] | 0.88 | 0.98 | 
COc1ccccc1N1CCN(CCCCN2C(=O)c3ccc(CNC(=O)CCOCCNC(=O)c4ccc(CNC(=O)CCc5ccc6n5[B-](F)(F)[N+]5=C(c7ccc[nH]7)C=CC5=C6)cc4)cc3C2=O)CC1 [NAN-190-3-NB590] | 1.25 | 1.00 | 
Cc1cc2c(s1)Nc1ccccc1N=C2N1CCN(CCCNC(=O)CCOCCOCCOCCOCCNC(=O)CCc2ccc3n2[B-](F)(F)[N+]2=C(c4ccc[nH]4)C=CC2=C3)CC1 [Olanzapine-a-2-NB590] | 1.02 | 1.01 | 
CCCn1c(=O)c2[nH]c(-c3ccc(OCC(=O)NCCNC(=O)CCOCCNC(=O)c4ccc(CNC(=O)CCc5ccc6n5[B-](F)(F)[N+]5=C(c7ccc[nH]7)C=CC5=C6)cc4)cc3)nc2n(CCC)c1=O [XAC-3-NB590] | 0.98 | 0.97 | 
COc1ccc2c(n1)c(CCNC(C)=O)cn2CCNC(=O)CCc1ccc2n1[B-](F)(F)[N+]1=C(c3ccc[nH]3)C=CC1=C2 [Azamelatonin-1-NB590] |  |  | NanoBRET Fold Response (0.1μM tracer): 0.76; NanoBRET Fold Response (1μM tracer): 0.54
